US12540129B2, “KIF18A inhibitors” (AMGEN INC., priority 2019, dated 2026)

Target: T1, Recombinant human KIF18A (1-467 His-tagged) protein (Homo sapiens, UniProt Q8NI77)
T1 construct: Recombinant human KIF18A (1-467 His-tagged) protein; His; made in house
Test: KIF18A Enzyme Assay: microtubule-stimulated ATPase activity (ADP-Glo)
Type: biochemical
Settings: 30 nM KIF18A, 75 μM ATP
How it was run: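 Recombinant human KIF18A (1-467, His-tagged), baculovirus-expressed, assayed for microtubule-stimulated ATPase activity; ADP formed detected by ADP-Glo luminescence. Compounds tested as 22-point 2-fold serial dilutions in DMSO. IC50 from four-parameter logistic fit.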

T1 sequence (Q8NI77 1-467): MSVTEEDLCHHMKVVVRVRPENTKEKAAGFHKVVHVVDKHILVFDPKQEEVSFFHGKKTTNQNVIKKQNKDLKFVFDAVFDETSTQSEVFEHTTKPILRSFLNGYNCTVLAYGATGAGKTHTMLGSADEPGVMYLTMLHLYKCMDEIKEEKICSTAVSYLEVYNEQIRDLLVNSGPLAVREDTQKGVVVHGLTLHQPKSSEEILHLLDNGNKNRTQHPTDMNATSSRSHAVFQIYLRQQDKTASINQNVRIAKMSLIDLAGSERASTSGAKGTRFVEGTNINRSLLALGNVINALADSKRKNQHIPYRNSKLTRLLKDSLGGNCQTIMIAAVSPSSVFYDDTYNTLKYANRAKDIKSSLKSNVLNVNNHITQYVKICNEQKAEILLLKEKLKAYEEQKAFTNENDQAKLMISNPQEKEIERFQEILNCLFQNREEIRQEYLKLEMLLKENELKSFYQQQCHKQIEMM
T1 sequence (P02550 whole entry partner): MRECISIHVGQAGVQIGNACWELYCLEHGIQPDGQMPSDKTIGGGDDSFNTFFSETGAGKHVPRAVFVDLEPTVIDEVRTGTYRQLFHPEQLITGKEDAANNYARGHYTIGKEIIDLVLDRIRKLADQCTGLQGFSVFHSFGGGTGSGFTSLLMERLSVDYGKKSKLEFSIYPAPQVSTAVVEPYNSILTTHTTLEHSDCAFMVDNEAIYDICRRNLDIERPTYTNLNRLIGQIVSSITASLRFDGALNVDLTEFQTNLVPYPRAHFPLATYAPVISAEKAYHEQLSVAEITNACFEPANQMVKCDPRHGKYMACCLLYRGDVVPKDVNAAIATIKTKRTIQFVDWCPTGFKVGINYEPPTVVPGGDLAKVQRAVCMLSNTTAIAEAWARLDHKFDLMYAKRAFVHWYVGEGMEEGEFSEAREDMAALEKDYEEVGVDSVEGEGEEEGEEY
T1 sequence (P02554 whole entry partner): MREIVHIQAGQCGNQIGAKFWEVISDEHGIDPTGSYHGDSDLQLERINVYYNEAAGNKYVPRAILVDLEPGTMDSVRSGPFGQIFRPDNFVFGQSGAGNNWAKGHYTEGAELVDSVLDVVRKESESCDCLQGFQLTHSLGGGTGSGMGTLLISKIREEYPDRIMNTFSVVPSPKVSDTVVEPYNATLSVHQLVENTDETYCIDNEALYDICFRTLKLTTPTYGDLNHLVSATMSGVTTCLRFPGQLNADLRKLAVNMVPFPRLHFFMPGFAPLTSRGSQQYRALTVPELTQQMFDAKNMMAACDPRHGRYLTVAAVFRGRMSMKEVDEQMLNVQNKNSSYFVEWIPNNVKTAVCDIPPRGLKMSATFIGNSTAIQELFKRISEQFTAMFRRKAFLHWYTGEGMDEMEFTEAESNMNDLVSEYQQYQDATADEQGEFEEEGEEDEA

Q: With `Cc1cc(NC(=O)c2ccc(NC(C)(C)CO)nc2N2CCC3(CC2)CC3)cc(S(=O)(=O)NC(C)(C)C)c1` [Example 105-18, N-(3-(N-(tert-butyl)sulfamoyl)-5-methylphenyl)-6-((1-hydroxy-2-methylpropan-2-yl)amino)-2-(6-azaspiro[2.5]octan-6-yl)nicotinamide] as the compound, how does the IC50 read?
A: 122 nM

Q: For `CC(C)(C)NS(=O)(=O)c1cc(NC(=O)c2ccc(NC(C)(C)CO)nc2N2CCC3(CC2)CC3)ccc1Cl` [Example 105-19, N-(3-(N-(tert-butyl)sulfamoyl)-4-chlorophenyl)-6-((1-hydroxy-2-methylpropan-2-yl)amino)-2-(6-azaspiro[2.5]octan-6-yl)nicotinamide], which IC50 is on record?
A: 70 nM

Q: `COc1ccc(NC(=O)c2ccc(NC(C)(C)CO)nc2N2CCC3(CC2)CC3)cc1S(=O)(=O)NC(C)(C)C` [Example 105-20, N-(3-(N-(tert-butyl)sulfamoyl)-4-methoxyphenyl)-6-((1-hydroxy-2-methylpropan-2-yl)amino)-2-(6-azaspiro[2.5]octan-6-yl)nicotinamide] was tested. Which IC50 did it give?
A: 162 nM

Q: `CC(C)(C)NS(=O)(=O)c1cc(F)cc(NC(=O)c2ccc(NC(C)(C)CO)nc2N2CCC3(CC2)CC3)c1` [Example 105-21, N-(3-(N-(tert-butyl)sulfamoyl)-5-fluorophenyl)-6-((1-hydroxy-2-methylpropan-2-yl)amino)-2-(6-azaspiro[2.5]octan-6-yl)nicotinamide] was tested. Which IC50 did it give?
A: 108 nM

Q: Which IC50 does the source give for `COc1cc(NC(=O)c2ccc(NC(C)(C)CO)nc2N2CCC3(CC2)CC3)cc(S(=O)(=O)NC(C)(C)C)c1` [Example 105-22, N-(3-(N-(tert-butyl)sulfamoyl)-5-methoxyphenyl)-6-((1-hydroxy-2-methylpropan-2-yl)amino)-2-(6-azaspiro[2.5]octan-6-yl)nicotinamide] here?
A: 134 nM

Q: With `CC(C)(C)NS(=O)(=O)c1cccc(NC(=O)c2ccc(NC(C)(C)CO)nc2N2CCC3(CC2)CC3)c1F` [Example 105-23, N-(3-(N-(tert-butyl)sulfamoyl)-2-fluorophenyl)-6-((1-hydroxy-2-methylpropan-2-yl)amino)-2-(6-azaspiro[2.5]octan-6-yl)nicotinamide] as the compound, how does the IC50 read?
A: 177 nM

Q: For `CC(C)(C)NS(=O)(=O)c1cc(Br)cc(NC(=O)c2ccc(NC(C)(C)CO)nc2N2CCC3(CC2)CC3)c1` [Example 105-24, N-(3-bromo-5-(N-(tert-butyl)sulfamoyl)phenyl)-6-((1-hydroxy-2-methylpropan-2-yl)amino)-2-(6-azaspiro[2.5]octan-6-yl)nicotinamide], which IC50 is on record?
A: 143 nM

Q: Which IC50 does the source give for `CC(C)(C)NC(=O)c1cccc(NC(=O)c2ccc(NC(C)(C)CO)nc2N2CCC3(CC2)CC3)c1` [Example 105-25, N-(3-(tert-butylcarbamoyl)phenyl)-6-((1-hydroxy-2-methylpropan-2-yl)amino)-2-(6-azaspiro[2.5]octan-6-yl)nicotinamide] here?
A: 314 nM

Q: How did the IC50 turn out when `CC(C)(CO)Nc1ccc(C(=O)Nc2cccc(N3CCCC3)c2)c(N2CCC3(CC2)CC3)n1` [Example 105-26, 6-((1-hydroxy-2-methylpropan-2-yl)amino)-N-(3-(pyrrolidin-1-yl)phenyl)-2-(6-azaspiro[2.5]octan-6-yl)nicotinamide] was run?
A: 234 nM

Q: How did the IC50 turn out when `CC(C)(CO)Nc1ccc(C(=O)Nc2cccc(N3CCOCC3)c2)c(N2CCC3(CC2)CC3)n1` [Example 105-27, 6-((1-hydroxy-2-methylpropan-2-yl)amino)-N-(3-morpholinophenyl)-2-(6-azaspiro[2.5]octan-6-yl)nicotinamide] was run?
A: 262 nM

Q: Which IC50 does the source give for `CC(C)(CO)Nc1ccc(C(=O)Nc2cccc(N3CCS(=O)(=O)CC3)c2)c(N2CCC3(CC2)CC3)n1` [Example 105-28, N-(3-(1,1-dioxidothiomorpholino)phenyl)-6-((1-hydroxy-2-methylpropan-2-yl)amino)-2-(6-azaspiro[2.5]octan-6-yl)nicotinamide] here?
A: 162 nM

Q: Which IC50 does the source give for `Cc1ccc(NC(=O)c2ccc(NC(C)(C)CO)nc2N2CCC3(CC2)CC3)cc1N1CCCC1=O` [Example 105-29, 6-((1-hydroxy-2-methylpropan-2-yl)amino)-N-(4-methyl-3-(2-oxopyrrolidin-1-yl)phenyl)-2-(6-azaspiro[2.5]octan-6-yl)nicotinamide] here?
A: 279 nM

Q: `Cc1ccc(NC(=O)c2ccc(NC(C)(C)CO)nc2N2CCC3(CC2)CC3)cc1N1CCOCC1` [Example 105-30, 6-((1-hydroxy-2-methylpropan-2-yl)amino)-N-(4-methyl-3-morpholinophenyl)-2-(6-azaspiro[2.5]octan-6-yl)nicotinamide] was tested. Which IC50 did it give?
A: 261 nM

Q: For `C[C@@H]1CN(c2cc(NC(=O)c3ccc(NC(C)(C)CO)nc3N3CCC4(CC3)CC4)ccc2F)CCO1` [Example 105-31, (R)-N-(4-fluoro-3-(2-methylmorpholino)phenyl)-6-((1-hydroxy-2-methylpropan-2-yl)amino)-2-(6-azaspiro[2.5]octan-6-yl)nicotinamide], which IC50 is on record?
A: 199 nM

Q: `C[C@@H]1CN(c2cc(F)cc(NC(=O)c3ccc(NC(C)(C)CO)nc3N3CCC4(CC3)CC4)c2)CCO1` [Example 105-32, (R)-N-(3-fluoro-5-(2-methylmorpholino)phenyl)-6-((1-hydroxy-2-methylpropan-2-yl)amino)-2-(6-azaspiro[2.5]octan-6-yl)nicotinamide] was tested. Which IC50 did it give?
A: 208 nM

Q: How did the IC50 turn out when `O=C(Nc1cccc(S(=O)(=O)C2CCCC2)c1)c1ccc(NC(CO)CO)nc1N1CCC2(CC1)CC2` [Example 106, N-(3-(Cyclopentylsulfonyl)phenyl)-6-((1,3-dihydroxypropan-2-yl)amino)-2-(6-azaspiro[2.5]octan-6-yl)nicotinamide] was run?
A: 54 nM

Q: How did the IC50 turn out when `CC1(NS(=O)(=O)c2cccc(NC(=O)c3ccc(NC(CO)CO)nc3N3CCC4(CC3)CC4)c2)CCC1` [Example 106-1, 6-((1,3-dihydroxypropan-2-yl)amino)-N-(3-(N-(1-methylcyclobutyl)sulfamoyl)phenyl)-2-(6-azaspiro[2.5]octan-6-yl)nicotinamide] was run?
A: 78 nM

Q: For `CC(C)(C)NS(=O)(=O)c1cccc(NC(=O)c2ccc(NC(CO)CO)nc2N2CCC3(CC2)CC3)c1` [Example 106-2, N-(3-(N-(tert-butyl)sulfamoyl)phenyl)-6-((1,3-dihydroxypropan-2-yl)amino)-2-(6-azaspiro[2.5]octan-6-yl)nicotinamide], which IC50 is on record?
A: 109 nM

Q: Which IC50 does the source give for `CC(CO)(CO)Nc1ccc(C(=O)Nc2cccc(S(=O)(=O)C3CCCC3)c2)c(N2CCC3(CC2)CC3)n1` [Example 106-3, N-(3-(cyclopentylsulfonyl)phenyl)-6-((1,3-dihydroxy-2-methylpropan-2-yl)amino)-2-(6-azaspiro[2.5]octan-6-yl)nicotinamide] here?
A: 39 nM

Q: With `Cc1ccc(NC(=O)c2ccc(NC(C)(CO)CO)nc2N2CCC3(CC2)CC3)cc1S(=O)(=O)C1CCCC1` [Example 106-4, N-(3-(cyclopentylsulfonyl)-4-methylphenyl)-6-((1,3-dihydroxy-2-methylpropan-2-yl)amino)-2-(6-azaspiro[2.5]octan-6-yl)nicotinamide] as the compound, how does the IC50 read?
A: 40 nM

Q: How did the IC50 turn out when `CC(C)(C)NS(=O)(=O)c1cccc(NC(=O)c2ccc(NC(C)(CO)CO)nc2N2CCC3(CC2)CC3)c1` [Example 106-5, N-(3-(N-(tert-butyl)sulfamoyl)phenyl)-6-((1,3-dihydroxy-2-methylpropan-2-yl)amino)-2-(6-azaspiro[2.5]octan-6-yl)nicotinamide] was run?
A: 53 nM

Q: `CC(CO)(CO)Nc1ccc(C(=O)Nc2cccc(S(=O)(=O)NC3CC3)c2)c(N2CCC3(CC2)CC3)n1` [Example 106-6, N-(3-(N-cyclopropylsulfamoyl)phenyl)-6-((1,3-dihydroxy-2-methylpropan-2-yl)amino)-2-(6-azaspiro[2.5]octan-6-yl)nicotinamide] was tested. Which IC50 did it give?
A: 48 nM

Q: How did the IC50 turn out when `CC(O)(c1ccc(C(=O)Nc2cccc(S(=O)(=O)NC3CC3)c2)c(N2CCC3(CC2)CC3)n1)C(F)(F)F` (stereo not drawn) [Example 108-1, N-(3-(N-cyclopropylsulfamoyl)phenyl)-2-(6-azaspiro[2.5]octan-6-yl)-6-(1,1,1-trifluoro-2-hydroxypropan-2-yl)nicotinamide] was run?
A: 52 nM

Q: With `CC(O)(c1ccc(C(=O)Nc2cccc(S(=O)(=O)C3CCCC3)c2)c(N2CCC3(CC2)CC3)n1)C(F)(F)F` (stereo not drawn) [Example 108-2, N-(3-(cyclopentylsulfonyl)phenyl)-2-(6-azaspiro[2.5]octan-6-yl)-6-(1,1,1-trifluoro-2-hydroxypropan-2-yl)nicotinamide] as the compound, how does the IC50 read?
A: 65 nM

Q: How did the IC50 turn out when `CC(C)(C)NS(=O)(=O)c1cccc(NC(=O)c2ccc(NS(C)(=O)=O)nc2N2CCC3(CC2)CC3)c1` [Example 110, N-(3-(N-(tert-butyl)sulfamoyl)phenyl)-6-(methylsulfonamido)-2-(6-azaspiro[2.5]octan-6-yl)nicotinamide] was run?
A: 91 nM

Q: `Cc1ccc(NC(=O)c2ccc(NC(C)(C)CO)nc2N2CCC3(CC2)CC3)cc1-c1ccoc1` [Example 111-1, N-(3-(furan-3-yl)-4-methylphenyl)-6-((1-hydroxy-2-methylpropan-2-yl)amino)-2-(6-azaspiro[2.5]octan-6-yl)nicotinamide] was tested. Which IC50 did it give?
A: 265 nM

Q: How did the IC50 turn out when `Cc1ccc(NC(=O)c2ccc(NC(C)(C)CO)nc2N2CCC3(CC2)CC3)cc1-c1ccco1` [Example 111-2, N-(3-(furan-2-yl)-4-methylphenyl)-6-((1-hydroxy-2-methylpropan-2-yl)amino)-2-(6-azaspiro[2.5]octan-6-yl)nicotinamide] was run?
A: 277 nM

Q: With `Cc1ccc(NC(=O)c2ccc(NC(C)(C)CO)nc2N2CCC3(CC2)CC3)cc1-c1cc[nH]n1` [Example 111-3, 6-((1-hydroxy-2-methylpropan-2-yl)amino)-N-(4-methyl-3-(1H-pyrazol-3-yl)phenyl)-2-(6-azaspiro[2.5]octan-6-yl)nicotinamide] as the compound, how does the IC50 read?
A: 342 nM

Q: How did the IC50 turn out when `Cc1ccc(NC(=O)c2ccc(NC(C)(C)CO)nc2N2CCC3(CC2)CC3)cc1-c1nccs1` [Example 111-4, 6-((1-hydroxy-2-methylpropan-2-yl)amino)-N-(4-methyl-3-(thiazol-2-yl)phenyl)-2-(6-azaspiro[2.5]octan-6-yl)nicotinamide] was run?
A: 349 nM

Q: How did the IC50 turn out when `Cc1coc(-c2cccc(NC(=O)c3ccc(NC(C)(C)CO)nc3N3CCC4(CC3)CC4)c2)n1` [Example 111-5, 6-((1-hydroxy-2-methylpropan-2-yl)amino)-N-(3-(4-methyloxazol-2-yl)phenyl)-2-(6-azaspiro[2.5]octan-6-yl)nicotinamide] was run?
A: 225 nM
